Results reported in patent US6468555B1, “Pesticidal compositions” (Sumitomo Chemical Company, Limited, priority 1999, dated 2002).

How the values were obtained:
Aphis gossypii = experiment: Pesticidal test against Aphis gossypii on potted cabbage plants (foliar spray); assay type: in vivo; details: 2.0 ppm active ingredient, 20 adults set free per pot; for Number of surviving aphids per pot After 3 days: 3 days after spraying; for Number of surviving aphids per pot After 6 days: 6 days after spraying
Text: Pesticidal Test Against Aphis gossypii
Twenty adults of Aphis gossypii were set free on three-leafed cabbage plants in pots. These plants were uniformly sprayed using a spray gun with a water dilution in a prescribed concentration of a commercial product of compound A (trade name: Lano 10EC; available from Sumitomo Chemical Co., Ltd.), a commercial product of compound B (trade name: Baroque Flowable; available from Yashima Chemical Industry Co., Ltd.), or a mixture of the commercial product of compound A and the commercial product of compound B. After air drying, the pots were placed in a greenhouse. On a predetermined day after the application, the cabbage plants were examined for the number of aphids surviving thereon.

Bemisia argentifolii = experiment: Pesticidal test against Bemisia argentifolii first-instar nymphs on cabbage seedlings (foliar spray); assay type: in vivo; details: 16 days after application
Text: Pesticidal Test Against Bemisia argentifolii
Cabbage seedlings infested with first-instar nymphs of Bemisia argentifollii were uniformly sprayed using a spray gun with a water dilution in a prescribed concentration of a commercial product of compound A (trade name: Lano 10EC; available from Sumitomo Chemical Co., Ltd.), a commercial product of compound B (trade name: Baroque Flowable; available from Yashima Chemical Industry Co., Ltd.), or a mixture of the commercial product of compound A and the commercial product of compound B. After air drying, each of the cabbage seedlings was placed in a net cage and kept in a greenhouse. After 16 days from the application, the number of emergent adults was determined.

Row | SMILES | Number of surviving aphids per pot After 3 days (Aphis gossypii) | Number of surviving aphids per pot After 6 days (Aphis gossypii) | Number of emergent adults (Bemisia argentifolii; 0.2 ppm, 108 nymphs used) | Number of emergent adults (Bemisia argentifolii; 0.4 ppm, 125 nymphs used)
1 | CC(COc1ccc(Oc2ccccc2)cc1)Oc1ccccn1 (stereo not drawn) [Compound A, 4-phenoxyphenyl 2-(2-pyridyloxy)propyl ether] | 45 | 11 | 13 | 
2 | CCOc1cc(C(C)(C)C)ccc1C1COC(c2c(F)cccc2F)=N1 (stereo not drawn) [Compound B, 2-(2,6-difluorophenyl)-4-(2-ethoxy-4-tert-butyl-phenyl)-2-oxazoline] | 11 | 25 |  | 51
